Experimental data taken from patent publication US20240156790A1, “COMPOUNDS, COMPOSITIONS, AND METHODS FOR MODULATING FERROPTOSIS AND TREATING EXCITOTOXIC DISORDERS” (THE TRUSTEES OF COLUMBIA UNIVERSITY IN THE CITY OF NEW YORK, priority 2018, published 2024).
Entries after “also recorded” stand apart in the source; their conditions may differ.

Assays:
HT-1080 cells = assay: Cell viability assays in HT-1080 cells, ferroptosis induced by IKE or RSL3 (Example 8); assay type: cell-based; details: for IC50: Homo sapiens, HT-1080, 48 h
[1] = test system: R6/2 Huntington's mouse model; assay: 30-day toxicity study in symptomatic R6/2 and wild type mice; assay type: in vivo; details: for tolerability of chronic administration: 20 mg/kg daily for 30 days, IP and PO; for deaths after 30 days / protection against body weight loss: R6/2 mice; for deaths after 30 days: 20 mg/kg daily
Method: In order to assess whether ferrostatins can be used in a long-term efficacy, we performed a toxicity study with the three analogs to determine whether symptomatic R6/2 mice could tolerate chronic administration of analog. Use TH-4-55-2 as an example: symptomatic R6/2 mice of both sexes at ˜10 weeks of age were dosed daily with 20 mg/kg TH-4-55-2 via both IP and oral gavage for 30 days. Body weight was measured and recorded and the % change in body weight from the baseline calculated. Any mice that lost more than 20% of their body weight for three days were euthanized prior to the completion of the study.
Ferrostatin analogs were dissolved in 5% DMSO/95% of 1:1 [(65% v/v of 25% w/v 2-hydroxypropyl-β-cyclodextrin dissolved in 20% EtOH, 30% v/v Poly(ethylene glycol)-400, 5% v/v Tween 80):MilliQ water] to create a 2 mg/mL solution. The same formulation without analog was used as a vehicle control. The solution was sterilized using a […] Steriflip filter unit. C57BL/6 and R6/2 mice at ˜10 weeks of age, after onset of symptoms in R6/2 mice, were injected with ferrostatin analog or vehicle at a dose of 20 mg/kg daily for 30 days via IP and PO routes of administration. […] Mice were randomly assigned to each condition, weighed daily, the weight recorded, and the change in body weight compared to the baseline, pre-injection weight was calculated. Any mouse that lost more than 20% of its baseline body weight for three consecutive days was euthanized prior to the completion of the study. Injections occurred daily at the same time in the day to ensure consistency. Experimental blinding was achieved by separating the syringe preparation and the injection and data analysis components, with one researcher preparing the syringes and the other injecting the mice and analyzing the data. Unblinding occurred at the termination of the study after the completion of data analysis. Data were plotted and analyzed in Graph Pad Prism 9.0 with significance determined via Two Way ANOVA or Mixed-effects model with Tukey's test for multiple comparisons.
Symptomatic R6/2 and age-matched C57BL/6 wild type mice of both sexes at ˜10 weeks of age were dosed daily with 20 mg/kg of TH-4-55-2 via IP or PO for 30 days. Body weight was measured and recorded and the percent change in body weight from baseline calculated. Per IACUC guidelines, any mouse that lost more than 20% body weight for three days was euthanized prior to completion of the study.

[2] = ^b 2 μM IKE, 48 hours, 1,000 cells/well
[3] = ^c 0.2 μM RSL3, 48 hours, 1,000 cells/well

| Structure (SMILES) | potency relative to fer-1 at suppressing ferroptosis, in words (HT-1080 cells) | IC50 (HT-1080 cells; [2]) [nM] | IC50 (HT-1080 cells; [3]) [nM] | tolerability of chronic administration [1] | deaths after 30 days ([1]; IP administration) | deaths after 30 days ([1]; PO administration, 20 mg/kg) | protection against body weight loss ([1]; PO administration, 20 mg/kg) |
| --- | --- | --- | --- | --- | --- | --- | --- |
| Cc1noc(-c2ccc(NC3CCCCC3)c(NC3CCCCC3)c2)n1 [PHB4082, N1,N2-dicyclohexyl-4-(3-methyl-1,2,4-oxadiazol-5-yl)benzene-1,2-diamine] | more potent than fer-1 |  |  |  |  |  |  |
| CCOC(=O)c1ccc(NC2CCCCC2)c(N)c1 [Fer-1, Ferrostatin-1, reference compound] |  | 9.1 | 3.6 |  |  |  |  |
| CCC(CC)Nc1cc(-c2nc(C)no2)cnc1NC1CCCCC1 [TH-4-55-2, N^2-cyclohexyl-5-(3-methyl-1,2,4-oxadiazol-5-yl)-N^3-(pentan-3-yl)pyridine-2,3-diamine] |  |  |  | well-tolerated in a 30-day toxicity study in wild-type mice and symptomatic R6/2 HD mice; also recorded: non-toxic and well-tolerated by R6/2 mice | one TH-4-55-2-treated mouse died | one TH-4-55-2-treated mouse died; also recorded: one TH-4-55-2-treated mice died | protected from body weight loss over time; also recorded: showed protection against HD-related weight loss; also recorded: showed a significant protective effect; also recorded: appeared to have no loss in body weight during the injection series |
| Cc1noc(-c2cnc(NC3CCCCC3)c(NC3CCCCC3)c2)n1 [TH-2-31, N^2,N^3-dicyclohexyl-5-(3-methyl-1,2,4-oxadiazol-5-yl)pyridine-2,3-diamine] | potencies greater than fer-1 | 5.6 | 4.8 | no detectable weight loss induced by either compound |  |  | didn't show this protective effect |
| Cc1noc(-c2cnc(NC3CCCC3)c(NC3CCCC3)c2)n1 [TH-4-67, N^2,N^3-dicyclopentyl-5-(3-methyl-1,2,4-oxadiazol-5-yl)pyridine-2,3-diamine] |  |  |  | no detectable weight loss induced by either compound |  |  | didn't show this protective effect |
